These results are taken from US8415469B2, “Compounds and methods for kinase modulation, and indications therefor” (Plexxikon Inc., priority 2005, dated 2013).

What all share (format): biochemical
One test addresses Syk (Homo sapiens, UniProt P43405). The test can be described thus: AlphaScreen kinase assay, Syk. The settings on record: read-out: IC50, activity toward kinase Syk. Summed up:
(§1)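 AlphaScreen read-out: acceptor-bead emission falls when kinase is inhibited. Biotin-peptide substrate captured on streptavidin donor beads, phospho-specific antibody on acceptor beads. 8 concentrations, 1:3 dilution series, from 20 mM DMSO stocks.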

The next test addresses MAP4K4 (Homo sapiens, UniProt O95819). The test is described as follows: AlphaScreen kinase assay, MAP4K4. Conditions: read-out: IC50, activity toward kinase MAP4K4.
The next test has as its target T1, MAPKAPK2 (Homo sapiens, UniProt P49137).
T1 construct: purchased Invitrogen (assay run by Invitrogen)
The test is described as follows: Z'-Lyte FRET kinase assay (Invitrogen), MAPKAPK2. Conditions: read-out: IC50, activity toward kinase MAPKAPK2. In short, it runs like this: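 Under a compound concentration curve, the kinase acted on a dual-labelled peptide at 2 μM with ATP at 10 μM for one hour at ambient temperature (buffer pH 7.5, 1% DMSO). Phosphorylation extent came from the emission ratio after protease development.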

A further test concerns the target Hck (Homo sapiens, UniProt P08631). The test can be described thus: AlphaScreen kinase assay, Hck. Conditions: read-out: IC50, activity toward kinase Hck. From the text:
(§2) AlphaScreen assay was used to screen additional kinases. The assay is similarly dependent on the phosphorylation of a peptide substrate. In this assay, an antibody that recognizes phosphorylated substrate is bound to an acceptor bead. The peptide substrate is attached to biotin, which binds to a donor head that contains streptavidin. Thus phosphorylated substrate is bound by antibody and streptavidin, bringing the donor and acceptor heads into close proximity when kinase is not inhibited. The donor produces singlet oxygen which results in emission from the acceptor when they are in close proximity. Conversely, when kinase is inhibited, the donor and acceptor beads are not associated and the emission from the acceptor is reduced.
(§3) AlphaScreen assays were done using compounds dissolved in DMSO to a concentration of 20 mM. The compounds were diluted accordingly to the desired final concentrations in each sample well, using 1:3 serial dilution for a total of 8 concentration points.

A further test addresses Csk (Homo sapiens, UniProt P41240). The test is described as follows: AlphaScreen kinase assay, Csk. Conditions: read-out: IC50, activity toward kinase Csk. In short, it runs like this: as §1
The target of the next test is Frk (Homo sapiens, UniProt P42685). The test is described as follows: AlphaScreen kinase assay, Frk. Conditions: read-out: IC50, activity toward kinase Frk. In short, it runs like this:
as §1

The target in another test is Gsk3β (Homo sapiens, UniProt P49841). The test is described as follows: AlphaScreen kinase assay, Gsk3β. Conditions: read-out: IC50, activity toward kinase Gsk3β. Summed up: as §1
Sequence of Gsk3β (P49841 whole entry): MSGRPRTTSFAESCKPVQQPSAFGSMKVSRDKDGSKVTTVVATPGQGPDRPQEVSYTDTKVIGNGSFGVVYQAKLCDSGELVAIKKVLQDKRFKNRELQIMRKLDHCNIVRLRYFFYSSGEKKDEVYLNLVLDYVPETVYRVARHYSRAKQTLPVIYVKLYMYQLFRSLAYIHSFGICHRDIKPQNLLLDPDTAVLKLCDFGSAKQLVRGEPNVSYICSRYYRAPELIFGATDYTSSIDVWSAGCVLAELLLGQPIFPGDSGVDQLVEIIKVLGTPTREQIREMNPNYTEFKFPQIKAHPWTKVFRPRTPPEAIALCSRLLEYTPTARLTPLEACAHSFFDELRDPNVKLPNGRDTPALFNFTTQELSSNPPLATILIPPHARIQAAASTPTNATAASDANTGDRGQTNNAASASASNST
The target in the next test is T2, TEC (Homo sapiens, UniProt P42680).
T2 sequence (P42680 1-631): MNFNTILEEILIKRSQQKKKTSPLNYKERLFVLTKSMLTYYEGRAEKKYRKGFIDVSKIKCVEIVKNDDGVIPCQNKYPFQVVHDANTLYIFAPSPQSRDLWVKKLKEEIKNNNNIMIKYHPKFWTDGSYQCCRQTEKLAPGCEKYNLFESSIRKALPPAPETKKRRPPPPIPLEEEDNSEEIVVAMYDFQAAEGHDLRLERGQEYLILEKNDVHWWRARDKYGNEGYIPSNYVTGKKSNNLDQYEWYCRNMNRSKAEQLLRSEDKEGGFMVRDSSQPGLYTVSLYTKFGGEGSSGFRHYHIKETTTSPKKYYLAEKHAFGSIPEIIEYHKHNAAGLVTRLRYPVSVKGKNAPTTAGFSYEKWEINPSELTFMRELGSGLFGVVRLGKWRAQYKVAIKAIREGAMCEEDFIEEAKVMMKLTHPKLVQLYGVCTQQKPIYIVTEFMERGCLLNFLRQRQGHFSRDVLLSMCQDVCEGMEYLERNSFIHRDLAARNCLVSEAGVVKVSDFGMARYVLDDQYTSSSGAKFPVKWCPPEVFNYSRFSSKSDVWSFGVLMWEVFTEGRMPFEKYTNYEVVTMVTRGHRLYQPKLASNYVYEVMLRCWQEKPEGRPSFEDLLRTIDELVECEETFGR
The test is described as follows: AlphaScreen kinase assay, TEC. Conditions: read-out: IC50, activity toward kinase TEC. In short, it runs like this: as §1

A further test deals with T3, Erk2 (Homo sapiens, UniProt P28482).
T3 construct: P4227.pET15S ERK2/MEK1DD; His6 with thrombin site (N); made in house
T3 sequence (P28482 with tags, fused parts or gaps): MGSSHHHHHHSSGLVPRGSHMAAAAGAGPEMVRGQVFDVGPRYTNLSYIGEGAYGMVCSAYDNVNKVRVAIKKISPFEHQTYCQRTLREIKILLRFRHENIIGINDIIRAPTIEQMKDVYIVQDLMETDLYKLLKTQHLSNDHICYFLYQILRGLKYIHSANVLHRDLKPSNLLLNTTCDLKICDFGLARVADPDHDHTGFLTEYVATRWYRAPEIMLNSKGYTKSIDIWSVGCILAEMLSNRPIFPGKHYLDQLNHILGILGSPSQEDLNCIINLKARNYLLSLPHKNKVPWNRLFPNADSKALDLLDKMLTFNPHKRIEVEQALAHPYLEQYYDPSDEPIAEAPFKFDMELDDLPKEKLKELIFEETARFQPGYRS
The test can be described thus: AlphaScreen kinase assay, Erk2. Conditions: read-out: IC50, activity toward kinase Erk2.
From the text: as §2, §3

Sequence of Hck (P08631 whole entry): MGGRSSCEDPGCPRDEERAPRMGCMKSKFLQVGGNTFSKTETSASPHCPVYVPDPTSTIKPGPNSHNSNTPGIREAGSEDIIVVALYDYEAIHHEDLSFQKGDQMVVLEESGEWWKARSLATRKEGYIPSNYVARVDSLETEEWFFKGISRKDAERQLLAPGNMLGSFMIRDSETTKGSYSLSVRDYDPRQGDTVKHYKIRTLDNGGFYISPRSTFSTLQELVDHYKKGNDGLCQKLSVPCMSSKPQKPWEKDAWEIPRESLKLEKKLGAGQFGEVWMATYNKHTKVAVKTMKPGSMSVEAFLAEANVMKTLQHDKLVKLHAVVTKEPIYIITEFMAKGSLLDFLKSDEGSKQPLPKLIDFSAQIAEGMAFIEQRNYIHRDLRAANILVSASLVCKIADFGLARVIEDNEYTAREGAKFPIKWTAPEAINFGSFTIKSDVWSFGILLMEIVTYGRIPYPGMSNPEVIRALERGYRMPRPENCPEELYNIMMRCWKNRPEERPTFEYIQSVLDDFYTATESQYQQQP
Sequence of MAP4K4 (O95819 whole entry): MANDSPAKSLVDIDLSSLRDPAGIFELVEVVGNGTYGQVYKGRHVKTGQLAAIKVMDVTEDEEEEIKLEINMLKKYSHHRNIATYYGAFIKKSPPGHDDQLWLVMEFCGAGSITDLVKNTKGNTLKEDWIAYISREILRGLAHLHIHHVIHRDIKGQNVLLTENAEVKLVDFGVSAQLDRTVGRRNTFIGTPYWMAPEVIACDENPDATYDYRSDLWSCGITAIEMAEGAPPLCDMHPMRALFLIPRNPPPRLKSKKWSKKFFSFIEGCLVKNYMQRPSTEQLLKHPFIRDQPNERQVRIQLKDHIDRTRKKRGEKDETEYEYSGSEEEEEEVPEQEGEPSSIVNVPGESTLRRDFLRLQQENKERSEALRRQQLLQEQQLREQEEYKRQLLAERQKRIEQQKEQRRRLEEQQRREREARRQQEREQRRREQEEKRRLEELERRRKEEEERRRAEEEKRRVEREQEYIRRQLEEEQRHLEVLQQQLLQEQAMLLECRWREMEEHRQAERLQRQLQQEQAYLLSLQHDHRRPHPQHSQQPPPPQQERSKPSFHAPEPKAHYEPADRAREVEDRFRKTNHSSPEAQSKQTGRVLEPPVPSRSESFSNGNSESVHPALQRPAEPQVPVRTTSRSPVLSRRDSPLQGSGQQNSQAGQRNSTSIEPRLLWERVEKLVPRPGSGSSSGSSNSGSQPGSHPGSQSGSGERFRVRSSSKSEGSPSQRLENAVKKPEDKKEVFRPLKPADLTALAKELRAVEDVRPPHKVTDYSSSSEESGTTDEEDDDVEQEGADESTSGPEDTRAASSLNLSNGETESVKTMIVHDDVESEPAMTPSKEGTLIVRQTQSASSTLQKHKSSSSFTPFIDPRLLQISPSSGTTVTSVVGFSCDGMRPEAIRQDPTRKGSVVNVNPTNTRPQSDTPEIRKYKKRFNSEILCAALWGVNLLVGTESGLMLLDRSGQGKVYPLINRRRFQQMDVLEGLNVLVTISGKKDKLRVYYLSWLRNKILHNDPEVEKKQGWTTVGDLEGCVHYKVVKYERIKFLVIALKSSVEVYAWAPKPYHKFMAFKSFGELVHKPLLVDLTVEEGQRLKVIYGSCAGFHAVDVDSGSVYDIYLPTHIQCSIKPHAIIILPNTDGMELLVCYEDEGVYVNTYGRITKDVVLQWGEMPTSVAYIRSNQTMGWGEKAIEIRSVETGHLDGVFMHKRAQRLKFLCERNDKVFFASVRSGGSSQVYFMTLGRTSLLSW
Sequence of Frk (P42685 whole entry): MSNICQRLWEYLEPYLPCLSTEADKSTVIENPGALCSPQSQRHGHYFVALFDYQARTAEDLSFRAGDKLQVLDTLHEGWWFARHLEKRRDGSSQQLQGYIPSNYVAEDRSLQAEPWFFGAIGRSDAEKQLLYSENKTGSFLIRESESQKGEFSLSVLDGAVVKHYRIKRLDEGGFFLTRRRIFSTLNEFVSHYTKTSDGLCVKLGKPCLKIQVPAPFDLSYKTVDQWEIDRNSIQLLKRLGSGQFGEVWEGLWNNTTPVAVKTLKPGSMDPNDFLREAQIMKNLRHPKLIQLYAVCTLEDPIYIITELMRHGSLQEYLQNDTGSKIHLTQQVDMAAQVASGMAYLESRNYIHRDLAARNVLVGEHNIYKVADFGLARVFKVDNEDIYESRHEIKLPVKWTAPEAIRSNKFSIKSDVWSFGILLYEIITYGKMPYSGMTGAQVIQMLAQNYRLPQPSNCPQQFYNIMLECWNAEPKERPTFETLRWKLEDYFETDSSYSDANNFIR
Sequence of Csk (P41240 whole entry): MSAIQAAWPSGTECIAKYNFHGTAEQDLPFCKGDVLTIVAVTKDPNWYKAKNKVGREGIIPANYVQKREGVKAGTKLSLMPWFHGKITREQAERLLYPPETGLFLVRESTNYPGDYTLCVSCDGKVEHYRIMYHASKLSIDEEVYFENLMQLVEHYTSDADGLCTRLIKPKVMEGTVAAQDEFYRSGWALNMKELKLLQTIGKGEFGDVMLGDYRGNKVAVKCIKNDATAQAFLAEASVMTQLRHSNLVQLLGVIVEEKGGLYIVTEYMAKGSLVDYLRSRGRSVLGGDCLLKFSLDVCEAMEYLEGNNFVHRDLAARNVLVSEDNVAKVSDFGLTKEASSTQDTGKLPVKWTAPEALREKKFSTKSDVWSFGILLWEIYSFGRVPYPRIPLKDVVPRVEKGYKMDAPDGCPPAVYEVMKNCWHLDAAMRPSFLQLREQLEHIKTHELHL
T1 sequence (P49137 whole entry): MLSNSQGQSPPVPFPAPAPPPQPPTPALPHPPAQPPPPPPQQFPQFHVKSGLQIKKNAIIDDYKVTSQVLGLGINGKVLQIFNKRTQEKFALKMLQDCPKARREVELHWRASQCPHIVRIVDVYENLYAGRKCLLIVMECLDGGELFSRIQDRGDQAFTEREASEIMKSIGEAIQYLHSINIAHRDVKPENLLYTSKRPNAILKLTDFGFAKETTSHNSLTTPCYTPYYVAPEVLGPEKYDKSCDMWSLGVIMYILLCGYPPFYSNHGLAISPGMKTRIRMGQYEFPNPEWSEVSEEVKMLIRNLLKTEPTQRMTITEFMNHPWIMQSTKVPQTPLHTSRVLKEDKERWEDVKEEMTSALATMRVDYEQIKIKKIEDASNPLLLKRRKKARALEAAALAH

For `Nc1cccc(-c2cnc3[nH]cc(C(=O)c4cc(O)ccc4F)c3c2)c1` [Compound P-0002], the IC50 on Syk is at most 10 µM.

As for `CCCS(=O)(=O)Nc1ccc(F)c(C(=O)c2c[nH]c3ncccc23)c1F` [Compound P-0007, Propane-1-sulfonic acid [2,4-difluoro-3-(1H-pyrrolo[2,3-b]pyridine-3-carbonyl)-phenyl]-amide], the IC50 at MAP4K4, on MAPKAPK2, at Hck, on Csk, on Frk and on Gsk3β was at most 10 µM each time.

In the case of `O=C(O)/C=C/c1cccc(-c2cnc3[nH]cc(C(=O)c4cc(O)ccc4F)c3c2)c1` [Compound P-0010], the concentration for half-maximal inhibition (IC50) at Syk is at most 10 µM.

Consider `COc1ccc(C(=O)c2c[nH]c3ncc(-c4cccc(/C=C/C(=O)O)c4)cc23)c(Cl)c1` [Compound P-0015], for which, at Gsk3β, the IC50 is at most 10 µM.

`Cc1ccccc1C(=O)c1c[nH]c2nccc(-c3ccc(C(N)=O)cc3)c12` [Compound P-0017]: the IC50 at TEC and at Gsk3β was at most 10 µM each time.

On to `O=C(O)/C=C/c1cccc(-c2cnc3[nH]cc(C(=O)c4ccccc4F)c3c2)c1` [Compound P-0033], for which the IC50 at Syk and at TEC was at most 10 µM each time.

For the compound `Cn1cc(C(F)(F)F)c(-c2ccc(S(=O)(=O)NCc3c[nH]c4ncccc34)s2)n1` [Compound P-0041], the IC50 at Erk2 and on MAPKAPK2 was at most 10 µM each time.

As to `Cc1ccccc1C(=O)c1c[nH]c2nccc(-c3cccc(N)c3)c12` [Compound P-0044], the IC50 at TEC is at most 10 µM.

As to `Oc1cccc(Cc2c[nH]c3ncc(-c4ccsc4)cc23)c1` [Compound P-0056], on Syk, the IC50 was at most 10 µM.

Consider `Cc1ccc(S(=O)(=O)NCc2c[nH]c3ncccc23)cc1` [Compound P-0058], for which the IC50 at Erk2 and at MAPKAPK2 was at most 10 µM each time.

As to `Cc1c(NS(C)(=O)=O)cccc1C(=O)c1c[nH]c2ncc(-c3ccccc3)cc12` [Compound P-0082, N-[2-Methyl-3-(5-phenyl-1H-pyrrolo[2,3-b]pyridine-3-carbonyl)-phenyl]-methanesulfonamide], the IC50 on MAP4K4 was at most 10 µM.

On to `CCCS(=O)(=O)Nc1ccc(F)c(C(=O)c2c[nH]c3ncc(-c4cccnc4)cc23)c1F` [Compound P-0088, Propane-1-sulfonic acid [2,4-difluoro-3-(5-pyridin-3-yl-1H-pyrrolo[2,3-b]pyridine-3-carbonyl)-phenyl]-amide], for which the IC50 on MAP4K4 and on TEC was at most 10 µM in each case.

Take `Fc1cc(F)cc(-c2ccnc3[nH]cc(Sc4ccccn4)c23)c1` [Compound P-0106]: the IC50 on MAPKAPK2 and on Gsk3β was at most 10 µM in each case.

With `Cc1ccccc1C(=O)c1c[nH]c2nccc(-c3cccc(NS(C)(=O)=O)c3)c12` [Compound P-0109], on Gsk3β, the IC50 is at most 10 µM.

For `CN(C)S(=O)(=O)Nc1ccc(F)c(Cc2c[nH]c3ncc(-c4cccnc4)cc23)c1F` [Compound P-0166], the IC50 on TEC was at most 10 µM.

As for `O=C(c1cccc(O)c1)c1c[nH]c2ncc(-c3cccs3)cc12` [Compound P-0196], the IC50 on Syk was at most 10 µM.

`O=C(c1cccc(O)c1F)c1c[nH]c2ncc(-c3cccs3)cc12` [Compound P-0521, (2-fluoro-3-hydroxy-phenyl)-(5-thiophen-2-yl-1H-pyrrolo[2,3-b]pyridin-3-yl)-methanone]: the IC50 on Syk was at most 10 µM.

For the compound `CCCS(=O)(=O)Nc1ccc(F)c(C(=O)c2c[nH]c3ncc(OC)cc23)c1F` [Compound P-0806, Propane-1-sulfonic acid [2,4-difluoro-3-(5-methoxy-1H-pyrrolo[2,3-b]pyridine-3-carbonyl)-phenyl]-amide], the IC50 on MAP4K4, at Hck and at Csk was at most 10 µM each time.

Take `CCCC(=O)Nc1ccc(F)c(Cc2c[nH]c3ncc(-c4cccnc4)cc23)c1F` [Compound P-1280]: the IC50 at MAP4K4 is at most 10 µM.

As to `CCCCNC(=O)Nc1ccc(F)c(C(=O)c2c[nH]c3ncc(-c4cccnc4)cc23)c1F` [Compound P-1318, 1-Butyl-3-[2,4-difluoro-3-(5-pyridin-3-yl-1H-pyrrolo[2,3-b]pyridine-3-carbonyl)-phenyl]-urea], the IC50 at MAP4K4, at Hck and at Frk was at most 10 µM in each case.

As to `COc1cccc(C(=O)c2c[nH]c3ncc(-c4cccc(NC(C)=O)c4)cc23)c1F` [Compound P-1336, N-{3-[3-(2-Fluoro-3-methoxy-benzoyl)-1H-pyrrolo[2,3-b]pyridin-5-yl]-phenyl}-acetamide], the IC50 at Erk2, at MAP4K4, on Hck, at Syk, at Csk and at Frk was at most 10 µM throughout. Besides, the IC50 on Gsk3β was at most 10 µM.

`OCCOc1ccc(F)c(Cc2c[nH]c3ncc(-c4cccnc4)cc23)c1F` [Compound P-1394, 2-[2,4-Difluoro-3-(5-pyridin-3-yl-1H-pyrrolo[2,3-b]pyridin-3-ylmethyl)-phenoxy]-ethanol]: the IC50 at MAP4K4, on Hck, on Csk and on Frk was at most 10 µM throughout.

`COc1cc(OC)cc(C(=O)c2c[nH]c3ncc(-c4cccc(NS(C)(=O)=O)c4)cc23)c1` [Compound P-1426, N-{3-[3-(3,5-Dimethoxy-benzoyl)-1H-pyrrolo[2,3-b]pyridin-5-yl]-phenyl}-methanesulfonamide]: the IC50 on MAP4K4, on Hck, on Csk and at Gsk3β was at most 10 µM each time.
